Key:
Experiment in all cases: relative viability (nuclei count vs DMSO), 5 days (fraction); higher = more cells survive
Ponatinib + Lapatinib = compound: Cc1ccc(C(=O)Nc2ccc(CN3CCN(C)CC3)c(C(F)(F)F)c2)cc1C#Cc1cnc2cccnn12 [Ponatinib] + CS(=O)(=O)CCNCc1ccc(-c2ccc3ncnc(Nc4ccc(OCc5cccc(F)c5)c(Cl)c4)c3c2)o1 [Lapatinib] (partner 2 µM)
Outline: (§1)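 A single step with final 0.05% Triton X-100, 1% formaldehyde and 1 ug/ml Hoechst fixed the cells and stained nuclei 5 days after treatment. Lung cancer cell lines in 1536-well plates had been treated by pin tool the day after seeding with one drug alone or a fixed anchor-drug dose plus five library-drug doses (not always all listed) in √10 steps, and nuclei were counted on 4× images. Relative viability is the ratio of nuclei in treated wells to nuclei in vehicle wells, taken as the median of duplicate plates.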

Pazopanib + Alpelisib = compound: Cc1ccc(Nc2nccc(N(C)c3ccc4c(C)n(C)nc4c3)n2)cc1S(N)(=O)=O [Pazopanib] + Cc1nc(NC(=O)N2CCC[C@H]2C(N)=O)sc1-c1ccnc(C(C)(C)C(F)(F)F)c1 [Alpelisib] (partner 2 µM)
Outline: as §1

Pazopanib + Olaparib = compound: Cc1ccc(Nc2nccc(N(C)c3ccc4c(C)n(C)nc4c3)n2)cc1S(N)(=O)=O [Pazopanib] + O=C(c1cc(Cc2n[nH]c(=O)c3ccccc23)ccc1F)N1CCN(C(=O)C2CC2)CC1 [Olaparib] (partner 8 µM)
Outline: as §1

Pazopanib + Tozasertib = compound: Cc1ccc(Nc2nccc(N(C)c3ccc4c(C)n(C)nc4c3)n2)cc1S(N)(=O)=O [Pazopanib] + Cc1cc(Nc2cc(N3CCN(C)CC3)nc(Sc3ccc(NC(=O)C4CC4)cc3)n2)n[nH]1 [Tozasertib] (partner 0.1 µM)
Outline: as §1

| Cell Line | relative viability (Ponatinib + Lapatinib; first compound 0.002 µM) | relative viability (Ponatinib + Lapatinib; first compound 0.006325 µM) | relative viability (Ponatinib + Lapatinib; first compound 0.06325 µM) | relative viability (Ponatinib + Lapatinib; first compound 0.2 µM) | relative viability (Pazopanib + Alpelisib; first compound 0.01 µM) | relative viability (Pazopanib + Alpelisib; first compound 0.03162 µM) | relative viability (Pazopanib + Alpelisib; first compound 0.1 µM) | relative viability (Pazopanib + Alpelisib; first compound 0.3162 µM) | relative viability (Pazopanib + Alpelisib; first compound 1 µM) | relative viability (Pazopanib + Olaparib; first compound 0.01 µM) | relative viability (Pazopanib + Olaparib; first compound 0.03162 µM) | relative viability (Pazopanib + Olaparib; first compound 0.1 µM) | relative viability (Pazopanib + Olaparib; first compound 0.3162 µM) | relative viability (Pazopanib + Olaparib; first compound 1 µM) | relative viability (Pazopanib + Tozasertib; first compound 0.01 µM) | relative viability (Pazopanib + Tozasertib; first compound 0.03162 µM) | relative viability (Pazopanib + Tozasertib; first compound 0.1 µM) | relative viability (Pazopanib + Tozasertib; first compound 0.3162 µM) | relative viability (Pazopanib + Tozasertib; first compound 1 µM) |
| --- | --- | --- | --- | --- | --- | --- | --- | --- | --- | --- | --- | --- | --- | --- | --- | --- | --- | --- | --- |
| NCI-H650 | 0.886 | 0.835 | 0.819 | 0.854 | 1.06 | 1.35 | 1.19 | 1.11 | 1.08 | 0.404 | 0.411 | 0.394 | 0.391 | 0.37 | 0.688 | 0.826 | 0.691 | 0.804 | 0.655 |
| NCI-H661 | 0.437 | 0.523 | 0.592 | 0.361 | 0.549 | 0.581 | 0.595 | 0.669 | 0.866 | 0.781 | 0.782 | 0.792 | 0.691 | 0.71 | 0.343 | 0.355 | 0.349 | 0.347 | 0.344 |
| NCI-H727 | 0.794 | 0.825 | 1.11 | 0.77 | 0.634 | 0.693 | 0.637 | 0.664 | 0.717 | 0.672 | – | 0.595 | 0.612 | 0.629 | 0.599 | 0.543 | 0.622 | 0.631 | 0.704 |
| NCI-H838 | 0.911 | 1.04 | 1.03 | 0.813 | 1.01 | 1.02 | 1.07 | 1.08 | 1.11 | 0.745 | 0.843 | 0.776 | 0.816 | 0.82 | 0.278 | 0.247 | 0.29 | 0.28 | 0.295 |
| NCI-H1355 | 0.939 | 0.947 | 1.17 | 1.02 | – | 0.765 | 0.99 | 0.871 | 0.849 | 0.716 | 0.708 | 0.76 | 0.761 | 0.754 | 0.582 | 0.579 | 0.513 | 0.55 | 0.553 |
| NCI-H1395 | – | 0.888 | 0.782 | 0.753 | 1.02 | 1.03 | 1.02 | 1.12 | 1.17 | 0.428 | 0.44 | 0.461 | 0.446 | 0.473 | 0.793 | 0.715 | 0.764 | 0.915 | 0.747 |
| NCI-H1437 | 0.742 | 0.848 | 0.885 | 0.758 | 0.938 | 1.02 | 0.964 | 0.938 | 1.05 | 0.644 | 0.645 | 0.649 | 0.653 | 0.551 | 0.414 | 0.42 | 0.408 | 0.412 | 0.375 |
| NCI-H1651 | 0.724 | 0.955 | 0.896 | 0.756 | 0.956 | 1.08 | 0.913 | 0.88 | 1.13 | 0.18 | 0.192 | 0.176 | 0.202 | 0.188 | 0.708 | 0.603 | 0.733 | 0.725 | 0.685 |
| NCI-H1666 | 0.619 | 0.666 | 0.796 | 0.773 | 1.07 | 1.06 | 1.02 | 0.954 | 1.16 | 0.819 | 0.874 | 0.74 | 0.649 | 0.769 | 0.573 | 0.649 | 0.625 | 0.609 | 0.648 |
